Consider 1 compound from paper PMC4608832, “Synthesis of New 4-Aminoquinolines and Evaluation of Their In Vitro Activity against Chloroquine-Sensitive and Chloroquine-Resistant Plasmodium falciparum” (PLoS ONE, 2015).

A short description of one data set: in vitro. The note with it: human, microsomes. The procedure:
The evaluation of microsomal stability was performed by Cyprotex US, LLC, Watertown, MA. […] After separation on an HILIC HPLC colum (Sepax HILIC […] 2.1 x 30 mm) using an acetonitrile-water gradient system, peaks were analyzed by mass spectrometry (MS) using ESI ionization in MRM mode. The signal was optimized for each compound by ESI positive or negative ionization mode. An MS2 scan or an SIM scan was used to optimize the fragmenter voltage and a product ion analysis was used to identify the best fragment for analysis, and the collision energy was optimized using a product ion or MRM scan. An ionization ranking was assigned indicating the compound’s ease of ionization.
A control reaction omitting NADPH was performed for each compound in order to detect any NADPH-independent degradation. Aliquots were removed at 0, 10, 20, 40, and 60 min and mixed with an equal volume of ice-cold Stop Solution (methanol containing haloperidol, diclofenac, or other internal standard). The stopped reactions were further incubated for at least 10 min at -20°C, and an additional volume of water was added. The samples were centrifuged to remove precipitated protein, and the supernatants were analyzed by LC/MS/MS to quantify the remaining parent. Data were converted to % remaining by dividing by the time zero concentration value, and fitted to a first-order decay model to determine half-life values. Intrinsic clearance values were calculated from the half-life and protein concentrations by using the equation CLint = ln 2 / t1/2 [microsomal protein].

The subject of a further data set is P. falciparum Dd2. The experiment in a line: In vitro antiplasmodial activity, 3H-hypoxanthine incorporation, strain Dd2. Type of data set: cell-based. To be noted: Plasmodium falciparum, IC50 ± SD, read-out: Antiplasmodial activity, IC50, Dd2. The procedure:
(§1) The following strains of Plasmodium falciparum were used in this study: F32 (Tanzania), Dd2 (SE Asia), K1 (SE Asia), FcB1 (Colombia), K14 (Cambodia) and 3D7 (Africa). […] Parasites at the ring stage (laboratory A) or asynchronous parasites (laboratory B) were grown in human A+ or O+ red blood cells at a 1.5% (laboratory A) or 2% (laboratory B) haematocrit and a 0.8–1% parasitaemia. Synchronization of the parasites was performed by sorbitol treatment.
(§2) Further dilutions were in complete culture medium. The complexes were tested for their inhibitory effect toward P. falciparum intraerythrocytic development. […] 100 μL from a culture at a 3% (laboratory A) or 4% (laboratory B) hematocrit in complete medium was added per well. […] Plates were freeze-thawed and harvested on filters. […] The percentage of growth inhibition was calculated from the parasite-associated radioactivity. 100% ^3H-hypoxanthine incorporation was determined from a control grown in the absence of drug or test compound.

For data set [1], the system named is P. falciparum 3D7 (CQ-sensitive). The data set can be described thus: In vitro antiplasmodial activity, 3H-hypoxanthine incorporation, strain 3D7. The format is cell-based. The note with it: Plasmodium falciparum, IC50 ± SD, read-out: Antiplasmodial activity, IC50, 3D7. The procedure:
as §1, §2

The test system of data set [2] is P. falciparum K1 (CQ-resistant). The data set can be described thus: In vitro antiplasmodial activity, 3H-hypoxanthine incorporation, strain K1. The format is cell-based. To be noted: Plasmodium falciparum, IC50 ± SD, read-out: Antiplasmodial activity, IC50, K1. As to the method: as §1, §2
On the set-up of data set [3]: method as in PMID 11805197. The note with it: elimination of the active metabolite after AQ; cited from earlier work.

Like-named read-outs stand apart in the source and are kept apart here. Some results are limits rather than exact numbers.

As usually defined, the microsomal CLint is a measure of how fast metabolising enzymes remove a compound, apart from limits set by blood flow. A higher microsomal CLint goes with faster metabolism. The term half-life denotes the time in which the quantity being followed falls by half. One may read the IC50 as the concentration that inhibits the measured activity by half. Take `CCN(CC)Cc1cc(Nc2ccnc3cc(Cl)ccc23)ccc1O` [AQ, amodiaquine, reference compound]: the microsomal CLint at 1 μM in “in vitro” (pH 7.4) was 431 ± 33.4 µL/min/mg. Besides, the half-life at 1 μM in “in vitro” (pH 7.4, NADPH-dep. t1/2) was 5.4 ± 0.42 min; in “in vitro” (pH 7.4, NADPH-free t1/2) it was greater than 240 min. Moreover, the IC50 in the data set with P. falciparum Dd2 (DD2, laboratory A (Marseille), 5% CO2, 10% O2, 85% N2, Dd2 CQ-resistant under these conditions) turned out to be 31.6 ± 7.77 nM; in the data set with P. falciparum Dd2 (DD2, laboratory B (Paris), candle jar ~17% O2, 3% CO2, 80% N2, Dd2 CQ-sensitive under these conditions), 11.3 ± 0.64 nM; in data set [1] (3D7, laboratory A (Marseille), 5% CO2, 10% O2, 85% N2), 24.6 ± 3.06 nM; in data set [1] (3D7, laboratory B (Paris), candle jar ~17% O2, 3% CO2, 80% N2), 11.9 ± 1 nM; in data set [2] (K1, laboratory A (Marseille), 5% CO2, 10% O2, 85% N2), 34.3 ± 0.58 nM; in data set [2] (K1, laboratory B (Paris), candle jar ~17% O2, 3% CO2, 80% N2), 9.6 ± 0.51 nM. In data set [3], the terminal half-life is given as ~ 100 h.
